Data published in patent US8288334B2, “Peptides for wound healing” (Gene Signal International SA, priority 2010, dated 2012).

Columns and labels:
trans-dermal wounds = assay: wound healing of trans-dermal wounds in mice after topical application; type: in vivo; details: for wound healing compared with Vehicle treated wounds: 0.5 mg/ml (5 mg/kg), mice; for % healing of wounds, day 1 post treatment: day 1, 0.5 mg/ml (5 mg/kg), vehicle 16.9%; for % healing of wounds, day 1 post treatment / % healing of wounds, day 2 post treatment / % healing of wounds, day 3 post treatment / % healing of wounds, day 4 post treatment: 5 mm punch wounds; for % healing of wounds, day 2 post treatment: day 2, 0.5 mg/ml (5 mg/kg), vehicle 21.2%; for % healing of wounds, day 3 post treatment: day 3, 0.5 mg/ml (5 mg/kg), vehicle 45.9%; for % healing of wounds, day 4 post treatment: day 4, 0.5 mg/ml (5 mg/kg), vehicle 57.5%
Protocol: The vehicle (Batch A) was administered by topical application at a standardized volume of 10 ml/kg for all applications. The peptides of the invention were administered by topical application at the concentration of 0.5 mg/ml in the vehicle. The protocols of treatment were as it follows: • Group 1: (Batch A, Vehicle): 1 topical application 10 minutes after wounding • Group 2: (Peptide 7, 0.5 mg/ml): 1 topical application 10 minutes after wounding • Group 3: (Peptide 10, 0.5 mg/ml): 1 topical application 10 minutes after wounding • Group 4: (Peptide 11, 0.5 mg/ml): 1 topical application 10 minutes after wounding • Group 5: (Peptide 7B, 0.5 mg/ml): 1 topical application 10 minutes after wounding. • Group 6: (Peptide 7A, 0.5 mg/ml): 1 topical application 10 minutes after wounding. • Group 7: (Peptide 7C, 0.5 mg/ml): 1 topical application 10 minutes after wounding. Wounding
Healthy female BALBC Swiss mice were anesthetized by IP injection of Ketamine-Xylazine (80 mg/kg-12 mg/kg; Ref. K-113, Sigma, France). Two trans-dermal wounds, each of 5 mm in width and about 1 to 2 mm in depth were realized in the right and the left flanks of each mouse using 5 mm punch.
At D1, and 10 min post-injury of the animals, the mice were randomized into 7 groups of 3 mice each.
All treatments were realized by topical application at the frequency of 1 topical application/day, for 4 days. Animals of group 1 were treated with the vehicle solution (Batch A). Animals of groups 2 to 7 were treated with the indicated peptide at a dose of 5 mg/kg.

[1] = tested on: human microvascular endothelial cells (HMEC); assay: in vitro angiogenesis assay (Matrigel, endothelial tube formation); type: cell-based; details: 400 μg/ml final concentration of each peptide, images at 6 h post incubation
Protocol: Angiogenesis of human microvascular endothelial cells (HMEC) was induced in vitro using a Matrigel assay described by Grant et al (1989, Cell, 1989; 58:933). This method is based on the differentiation of endothelial cells to form capillary structures on a Matrigel Matrix. Matrigel is prepared the Engelbreth-Holm-Swarm (EHS) mouse tumor, which represents a complex mixture of basement membrane proteins including type IV collagen, entactin, proteo-heparan sulfate and other growth factors.
Briefly, 250 μl of Matrigel were transferred to each well of a 24-well culture plate and incubated at 37° C. for 30 min to allow for the matrix solution to solidify. HMEC grown in complete growth medium EGM-2MV were harvested by trypsin, suspended in the same growth medium and 500 μl containing 70 000 cells were added on top of the solidified Matrigel in each well and in the presence or absence of protein. Cells were maintained in a humidified atmosphere air containing 5% CO2 at 37° C. for 18-24 hrs. Endothelial tube formation was observed and photographed under an inverted light microscope.
The results of the in vitro angiogenesis assay were presented in FIG. 1, using HMEC and 400 μg/ml final concentration of each peptide. Images were taken at 6 h post incubation.

VEGFA protein = VEGFA protein by human VEGFA sandwich ELISA in HMEC culture medium; type: cell-based; details: HMEC incubated with increasing concentrations of peptide
Protocol: Serum-deprived HMEC were incubated with different concentrations of peptide 7 or peptide 10 or vehicle […]. After 3 washes with ice-cold PBS, cells were suspended with the protein extraction buffer (PEB) (20 mM Tris-HCl pH 7.5, 150 mM NaCl, 1 mM EDTA, 1 mM EGTA, 1% Triton, 25 mM sodium pyrophosphate, 1 mM β-glycero-phosphate, 1 mM Na3Vo4, 1 μg/ml leupeptine, 1 μM PMSF). The protein content was measured by Bradford. VEGFA concentration in the culture medium or in the extracts was determined by human VEGFA Sandwich ELISA kit (Cell Signaling technology) according to the manufacturer's instructions.

[2] = tested on: Akt (phosphoserine 473 pAkt); assay: activation status of protein kinase B (pAkt) by western-blot in HMEC; type: cell-based, human; details: 400 μg/ml, 10 min and 30 min post incubation, immunoblot
Protocol: The activation status of pAkt was determined by western-blot using an anti-phosphoserine 473 pAkt antibody, and anti-GAPDH mAb as internal standard.
The status of Akt in the HMEC following incubation with either peptide 7 or peptide 10 was investigated.

MAPK (Erk1 and 2) = assay: activation status of MAPK (pErk1/2) by western-blot in HMEC; type: cell-based, human; details: immunoblot anti-activated MAPK (pErk1/2)
Protocol: The activation status of MAPK was determined by western-blot using an anti-activated MAPK (pErk1/2) antibody, and anti-GAPDH mAb as internal standard.
We have also investigated the status of the mitogen activated protein kinase (MAPK), as it is well established that it represents another cascade of intracellular signaling could be implicated in the regulation of VEGF expression.

Q: For ELDLQASL [Peptide 7B], which “wound healing compared with Vehicle treated wounds” value (trans-dermal wounds) is on record?
A: healed faster than the wounds treated with Vehicle

Q: QSQKVPRQVQS [Peptide 11] was tested. Which “in vitro angiogenesis-inducing activity” value [1] did it give?
A: strong in vitro angiogenesis-inducing activity

Q: And the “wound healing compared with Vehicle treated wounds” value (trans-dermal wounds)?
A: healed faster than the wounds treated with Vehicle

Q: How did the “wound healing compared with Vehicle treated wounds” value (trans-dermal wounds) turn out when RRTTQECPVRTSLD [Peptide 7C] was run?
A: healed faster than the wounds treated with Vehicle

Q: What about the “% healing of wounds, day 1 post treatment” value (trans-dermal wounds) of the same sequence?
A: 39.4%

Q: And the “% healing of wounds, day 2 post treatment” value (trans-dermal wounds)?
A: 55.3%

Q: What about the “% healing of wounds, day 3 post treatment” value (trans-dermal wounds) of the same sequence?
A: 58.8%

Q: And the “% healing of wounds, day 4 post treatment” value (trans-dermal wounds)?
A: 68.2%

Q: Which results are given for TQECPVRTSLD [Peptide 7A]?
A: wound healing compared with Vehicle treated wounds (trans-dermal wounds): healed faster than the wounds treated with Vehicle; % healing of wounds, day 1 post treatment (trans-dermal wounds): 27.4%; % healing of wounds, day 2 post treatment (trans-dermal wounds): 44.7%; % healing of wounds, day 3 post treatment (trans-dermal wounds): 45.1%; % healing of wounds, day 4 post treatment (trans-dermal wounds): 58.8%

Q: With TQECPVRTSLDRELDLQASL [Peptide 7] as the sequence, how does the “in vitro angiogenesis-inducing activity” value [1] read?
A: strong in vitro angiogenesis-inducing activity

Q: And the “wound healing compared with Vehicle treated wounds” value (trans-dermal wounds)?
A: healed faster than the wounds treated with Vehicle

Q: What about the “VEGF protein within the culture medium, concentration dependence” value (VEGFA protein) of the same sequence?
A: dose-dependent increase in VEGF protein

Q: And the “level of activated Akt relative to HMEC incubated without peptide (Control)” value [2]?
A: much higher level of activated Akt

Q: What about the “level of activation of Erk1 and 2 (MAPK) versus Control” value (MAPK (Erk1 and 2)) of the same sequence?
A: not significant variations in level of activation of Erk1 and 2

Q: With VSKDVCRL [Peptide 10] as the sequence, how does the “in vitro angiogenesis-inducing activity” value [1] read?
A: strong in vitro angiogenesis-inducing activity

Q: What about the “wound healing compared with Vehicle treated wounds” value (trans-dermal wounds) of the same sequence?
A: healed faster than the wounds treated with Vehicle

Q: What about the “level of activated Akt relative to HMEC incubated without peptide (Control)” value [2] of the same sequence?
A: much higher level of activated Akt

Q: And the “level of activation of Erk1 and 2 (MAPK) versus Control” value (MAPK (Erk1 and 2))?
A: not significant variations in level of activation of Erk1 and 2
